From ChEMBL document CHEMBL1201862, “PubChem BioAssay data set” (2004) come the findings set out here.

Some test systems named below: SNB-19; A549; CCRF-CEM; OVCAR-5; M14; SR; UACC-62; SW-620; SF-539; KM-20L2; SK-MEL-5; HL-60; NCI-H23; MOLT-4; SK-MEL-2; EKVX; SNB-75; MDA-N; MDA-MB-231.
Holding throughout (experiment): inhibition of tumour cell growth, NCI panel, 48 h

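1) Cells in 96-well plates. 2) Compound, 48 h, 5 concentrations. 3) Linear interpolation between surrounding doses. 4) Unreached endpoint = highest concentration. GI50: concentration for 50% inhibition of growth.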 Active and inactive are the calls of the source. Cut-off read from the data, not from the text of the source: active = GI50 up to about 1.1 µM and inactive = higher. A value given as a limit tells only on which side of the number the result lay.

Regarding `N#C/C(c1nc2ccccc2[nH]1)=c1\s/c(=C/c2ccccc2)c(=O)n1-c1ccccc1`, the GI50 in the assay on SNB-19 is > 100 µM (inactive); in the assay with A549, > 100 µM (inactive); with CCRF-CEM it was 98.9 µM (inactive); in the assay on OVCAR-5, > 100 µM (inactive); in the assay with M14, > 100 µM (inactive); in the assay with SR it was > 100 µM (inactive). The GI50 in the assay with UACC-62 is > 100 µM (inactive); in the assay on SW-620, > 100 µM (inactive); in the assay on SF-539, > 100 µM (inactive); in the assay on KM-20L2 it was > 100 µM (inactive); in the assay on SK-MEL-5, 81.8 µM (inactive); with HL-60, > 100 µM (inactive). Further, the GI50 in the assay with NCI-H23 was > 100 µM (inactive); in the assay on MOLT-4, 9.89 µM (inactive); in the assay on SK-MEL-2 it was > 100 µM (inactive); with EKVX, > 100 µM (inactive); in the assay with SNB-75, > 100 µM (inactive).
Regarding `NC(=S)NNC(=O)/C(=C/c1ccc(/C=C(\NC(=O)c2ccccc2)C(=O)NNC(N)=S)cc1)NC(=O)c1ccccc1`, the GI50 is > 100 µM (inactive) with SNB-19; > 100 µM (inactive) in the assay on A549; 34.3 µM (inactive) in the assay on CCRF-CEM; > 100 µM (inactive) with OVCAR-5; > 100 µM (inactive) with M14; 26.1 µM (inactive) in the assay with SR. Further, the GI50 with UACC-62 is > 100 µM (inactive); in the assay with SW-620, > 81.8 µM (inactive); with SF-539, > 100 µM (inactive); with KM-20L2 it was > 100 µM (inactive); in the assay with SK-MEL-5, 66.2 µM (inactive); with HL-60 it was 15.6 µM (inactive). The GI50 in the assay on NCI-H23 is > 100 µM (inactive); in the assay on MOLT-4, 13.8 µM (inactive); in the assay with SK-MEL-2, > 100 µM (inactive); in the assay on EKVX it was > 100 µM (inactive); with SNB-75, 30.4 µM (inactive).
Regarding `C=CCOc1cc2c(cc1C(C)c1ccc(OC)cc1)OCO2` (centres undefined), the GI50 in the assay with SNB-19 was 0.564 µM (active); in the assay with A549, 0.869 µM (active); in the assay on CCRF-CEM it was 0.443 µM (active); with OVCAR-5 it was 12.2 µM (inactive); in the assay on M14, 0.67 µM (active); in the assay with SR, 0.299 µM (active). In addition, the GI50 in the assay on UACC-62 is 0.416 µM (active); with SW-620, 0.375 µM (active); in the assay with SF-539 it was 0.333 µM (active); in the assay on KM-20L2, 0.348 µM (active); with SK-MEL-5, 0.601 µM (active); in the assay on HL-60, 0.196 µM (active). The GI50 in the assay with NCI-H23 was 0.807 µM (active); in the assay on MOLT-4 it was 0.483 µM (active); in the assay on MDA-N it was 0.337 µM (active); in the assay with SK-MEL-2 it was 16.6 µM (inactive); in the assay on MDA-MB-231, 11.5 µM (inactive); in the assay with SNB-75, 0.176 µM (active).
On to `C[C@]12C=CC(=O)C=C1CC[C@H]1[C@@H]3C[C@@H](O)[C@](O)(C(=O)CO)[C@@]3(C)C[C@H](O)[C@@]12F` [TRIAMCINOLONE], for which the GI50 in the assay on SNB-19 is > 100 µM (inactive); in the assay with A549, > 100 µM (inactive); in the assay with CCRF-CEM, 1.4 µM (inactive); in the assay with OVCAR-5, > 100 µM (inactive); in the assay with M14 it was > 100 µM (inactive); with SR, > 100 µM (inactive). Moreover, the GI50 in the assay on UACC-62, with SW-620, in the assay on SF-539, with KM-20L2, in the assay with SK-MEL-5 and in the assay with HL-60 was > 100 µM (inactive) throughout. For the same compound, the GI50 in the assay on NCI-H23, in the assay on MOLT-4, in the assay on SK-MEL-2, in the assay with EKVX and with SNB-75 was > 100 µM (inactive) throughout.
